Reference: patent publication US8795659B2 (priority 2004, dated 2014)

Tested on: Lewis Lung Carcinoma
Conditions: mouse, in vivo, ip

**Q.** For O=P1(N(CCCl)CCCl)NCCCO1 (centres unmarked) [Cyclophosphamide, cyclophosphamide], which “% ILS (excluding survivors)” value is on record?
**A.** 68%

**Q.** And the Highest non-toxic dosage?
**A.** 200

**Q.** And the “T-C (tumor growth delay to 750 mg)” value?
**A.** 27 days

**Q.** What about the tumor free survivors of the same molecule?
**A.** 5/10

**Q.** O=P1(NCCCl)OCCCN1CCCl (centres unmarked) [Ifosfamide] was tested. Which “% ILS (excluding survivors)” value did it give?
**A.** 55%

**Q.** What about the Highest non-toxic dosage of the same molecule?
**A.** 300

**Q.** What about the “T-C (tumor growth delay to 750 mg)” value of the same molecule?
**A.** 18 days

**Q.** What about the tumor free survivors of the same molecule?
**A.** 7/10
